The nature of assay [1]: Induction of adipogenesis in human bone marrow-derived mesenchymal stem cells assessed as adiponectin level at 20 uM measured on day 7 after 48 hrs by ELISA. In kind it is functional, Mesenchymal stem cell. A general note: ELISA stands for enzyme-linked immunosorbent assay.
Assay [2] deals with T1, Peroxisome proliferator-activated receptor alpha (Homo sapiens) (UniProt Q07869).
T1 sequence (whole entry): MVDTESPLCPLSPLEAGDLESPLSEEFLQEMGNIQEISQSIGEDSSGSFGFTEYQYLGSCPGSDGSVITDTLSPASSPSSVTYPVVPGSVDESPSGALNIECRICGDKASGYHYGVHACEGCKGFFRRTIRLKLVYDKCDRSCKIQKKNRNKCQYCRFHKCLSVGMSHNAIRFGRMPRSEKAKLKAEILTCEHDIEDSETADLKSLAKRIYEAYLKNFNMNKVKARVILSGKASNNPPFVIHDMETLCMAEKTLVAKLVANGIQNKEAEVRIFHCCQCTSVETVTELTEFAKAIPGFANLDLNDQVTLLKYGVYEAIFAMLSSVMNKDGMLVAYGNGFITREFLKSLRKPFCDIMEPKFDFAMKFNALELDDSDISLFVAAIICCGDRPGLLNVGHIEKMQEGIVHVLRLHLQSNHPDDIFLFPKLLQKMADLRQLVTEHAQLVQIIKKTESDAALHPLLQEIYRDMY
The assay is described as follows: Displacement of Fluormone-Pan-PPAR Green from human GST-tagged PPARalpha LBD at 20 uM by TR-FRET assay relative to control. On the technique in general: Time-resolved FRET reads energy transfer from a long-lived donor to a nearby acceptor.

The nature of assay [3]: Induction of adipogenesis in human bone marrow-derived mesenchymal stem cells assessed as adiponectin level at 4 uM measured on day 7 after 48 hrs by ELISA. Format: functional, Mesenchymal stem cell.
For assay [4], the target named is T2, Peroxisome proliferator-activated receptor gamma (Homo sapiens) (UniProt P37231).
T2 sequence (whole entry): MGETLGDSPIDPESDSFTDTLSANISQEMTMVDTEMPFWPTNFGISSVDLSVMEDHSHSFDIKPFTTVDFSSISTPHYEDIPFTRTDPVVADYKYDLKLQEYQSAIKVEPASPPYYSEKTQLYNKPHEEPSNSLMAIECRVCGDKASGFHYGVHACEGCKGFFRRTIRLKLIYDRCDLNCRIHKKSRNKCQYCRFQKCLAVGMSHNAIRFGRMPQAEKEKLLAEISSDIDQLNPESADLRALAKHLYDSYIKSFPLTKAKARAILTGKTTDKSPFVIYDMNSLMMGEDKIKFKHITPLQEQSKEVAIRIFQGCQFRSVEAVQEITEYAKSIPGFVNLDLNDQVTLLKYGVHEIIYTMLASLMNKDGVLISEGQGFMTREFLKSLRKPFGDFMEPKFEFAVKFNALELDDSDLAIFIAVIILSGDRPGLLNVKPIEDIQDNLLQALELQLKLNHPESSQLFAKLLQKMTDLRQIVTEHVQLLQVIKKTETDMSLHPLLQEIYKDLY
The assay is described as follows: Displacement of Fluormone-Pan-PPAR Green from human GST-tagged PPARgamma LBD at 20 uM by TR-FRET assay relative to control.

Assay [5] concerns the target T3, Peroxisome proliferator-activated receptor delta (Homo sapiens, UniProt Q03181).
T3 sequence (Q03181 whole entry): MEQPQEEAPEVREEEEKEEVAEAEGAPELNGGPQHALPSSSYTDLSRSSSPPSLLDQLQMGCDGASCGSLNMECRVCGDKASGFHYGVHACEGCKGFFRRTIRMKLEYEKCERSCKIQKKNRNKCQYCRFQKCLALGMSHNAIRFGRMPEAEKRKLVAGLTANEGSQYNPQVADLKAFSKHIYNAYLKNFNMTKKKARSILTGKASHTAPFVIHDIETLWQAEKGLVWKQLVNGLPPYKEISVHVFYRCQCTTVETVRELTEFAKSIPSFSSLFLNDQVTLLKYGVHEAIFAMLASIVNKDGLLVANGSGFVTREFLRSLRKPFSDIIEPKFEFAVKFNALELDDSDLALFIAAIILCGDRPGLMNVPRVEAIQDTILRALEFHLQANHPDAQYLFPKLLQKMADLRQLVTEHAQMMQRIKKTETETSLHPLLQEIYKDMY
The assay is described as follows: Displacement of Fluormone-Pan-PPAR Green from human GST-tagged PPARdelta LBD by TR-FRET assay.

Assay [6] deals with Mesenchymal stem cell. The assay can be described thus: Induction of adipogenesis in human bone marrow-derived mesenchymal stem cells assessed as increase in adiponectin production at 20.4 uM after 7 days in presence of IDX. In kind it is functional, cell-based.
The target in assay [7] is T4, Peroxisome proliferator-activated receptor gamma (Homo sapiens, UniProt P37231).
T4 sequence (P37231 whole entry): T2 sequence (whole entry)
The assay is described as follows: (§1) Displacement of Fluormone-Pan-PPAR Green from human GST-tagged PPARgamma LBD by TR-FRET assay.

The target in assay [8] is T5, Peroxisome proliferator-activated receptor delta (Homo sapiens) (UniProt Q03181).
T5 sequence (whole entry): T3 sequence (Q03181 whole entry)
The assay can be described thus: Displacement of Fluormone-Pan-PPAR Green from human GST-tagged PPARdelta LBD at 10 uM by TR-FRET assay relative to control.

Assay [9] addresses T6, Adenosine receptor A3 (Homo sapiens, UniProt P0DMS8).
T6 sequence (P0DMS8 whole entry): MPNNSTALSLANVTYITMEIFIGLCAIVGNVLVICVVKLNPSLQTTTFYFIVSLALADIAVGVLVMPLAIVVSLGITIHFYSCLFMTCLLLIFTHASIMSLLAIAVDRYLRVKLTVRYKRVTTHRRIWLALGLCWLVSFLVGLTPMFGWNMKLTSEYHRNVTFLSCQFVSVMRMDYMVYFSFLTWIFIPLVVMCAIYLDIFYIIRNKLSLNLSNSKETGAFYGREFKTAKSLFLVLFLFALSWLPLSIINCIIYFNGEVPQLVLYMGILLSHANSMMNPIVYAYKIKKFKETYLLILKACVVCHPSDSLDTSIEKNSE
The assay can be described thus: Displacement of [125I]I-AB-MECA from human A3 adenosine receptor expressed in CHO cell membranes after 60 mins by gamma counting method. (In general: Loss of bound radioactivity is the signal in a displacement assay; it reports binding, not function.)

The target in assay [10] is T2, Peroxisome proliferator-activated receptor gamma (Homo sapiens). The assay is described as follows: Transactivation of human PPARgamma expressed in African green monkey CV1 cells at 10 uM by luciferase reporter gene assay relative to control. Format: cell-based.
Assay [11] addresses T5, Peroxisome proliferator-activated receptor delta (Homo sapiens). The assay can be described thus: Transactivation of human GST-tagged PPARdelta LBD assessed as fluorescein-C33 coactivator recruitment at 10 uM by TR-FRET assay.
The target is the same in assay [12]. The assay can be described thus: Transrepression of human GST-tagged PPARdelta LBD assessed as induction of corepressor SMRT-ID2 peptide recruitment by TR-FRET assay.
The target of assay [13] is Peroxisome proliferator-activated receptor delta (Homo sapiens) (UniProt Q03181). The assay can be described thus: Antagonist activity at human GST-tagged PPARdelta LBD assessed as reduction in GW501516-induced fluorescein-C33 coactivator recruitment at 1 uM by TR-FRET assay relative to control.
In assay [14] the test system is Mus musculus. The assay is described as follows: Antidiabetic activity in STZ-induced diabetic C57BL/6J mouse assessed as insulin sensitivity by measuring reduction of serum glucose levels at 20 mg/kg,po for 5 days measured at 1 and 4 hrs post last dose. Format: functional, organism-based.
Assay [15] in a line: Induction of adipogenesis in mouse 7F2 cells transfected with human AR assessed as increase in […] at 1 to 10 uM after 7 to 12 days by staining based oil red O phase contrast microscopic method relative to control. Format: functional.
The test system of assay [16] is Mesenchymal stem cell. The assay can be described thus: Induction of adipogenesis in human bone marrow-derived mesenchymal stem cells assessed as adiponectin level at 20 to 30 uM measured on day 7 after 48 hrs by ELISA. In kind it is functional, cell-based.
Assay [17] deals with T2, Peroxisome proliferator-activated receptor gamma (Homo sapiens). The description is as §1.
Assay [18] relates to Mus musculus. The assay is described as follows: Antidiabetic activity in STZ-induced diabetic C57BL/6J mouse assessed as insulin sensitivity by measuring reduction of serum glucose levels administered po for 5 days measured at 1 and 4 hrs post last dose. In kind it is functional, organism-based.

pKi: −log10 of the molar value. Activity calls are given as the source filed them. The calls are words filed in the database; no cut-off is given here.

In general, inhibition refers to how much of the control response was suppressed. As usually defined, the pKi is the Ki on a negative log10 scale, so that one unit is a factor of ten.

Regarding `O=C(NCC1CC1)[C@H]1S[C@@H](n2cnc3c(NCc4cccc(I)c4)ncnc32)[C@H](O)[C@@H]1O`, the Activity is 490 pg/mL in [1] and 242 pg/mL in assay [3]. In addition, in assay [2], the inhibition came to 16.4%.
Turning to `O[C@@H]1[C@H](O)CS[C@H]1n1cnc2c(NCc3ccccc3Cl)nc(Cl)nc21`, the inhibition in assay [4] and in [2] was 19.2% throughout. Besides, the results for the Activity in assay [1] and in [3] were 268 pg/mL and 107 pg/mL, respectively. In [5], this compound showed a pKi of 6.21.
For the compound `CCNC(=O)[C@H]1O[C@@H](n2cnc3c(N)nc(NCCc4ccc(CCC(=O)O)cc4)nc32)[C@H](O)[C@@H]1O`, the outcome in [6] was inactive.
Consider `O[C@@H]1[C@H](O)CS[C@H]1n1cnc2c(NCc3cccc(Cl)c3)nc(Cl)nc21`, for which the values for the inhibition in assay [4] and in assay [2] were 40.8% and 4.5%, respectively. For the same compound, the Activity in assay [1] was found to be 442 pg/mL; in assay [3], 196 pg/mL.
Consider `CC(C)Cn1c(=O)n(C)c(=O)c2nc[nH]c21` [ISOBUTYLMETHYLXANTHINE], for which the Activity in assay [1] and in assay [3] was 100 pg/mL each time.
In the case of `CNC(=O)[C@H]1S[C@@H](n2cnc3c(NCc4cccc(I)c4)nc(Cl)nc32)[C@H](O)[C@@H]1O`, the figures for the Activity in assay [1] and in assay [3] were 738 pg/mL and 131 pg/mL, respectively. Besides, the figures for the pKi in assay [7] and in [5] were 5.34 and 6.80, respectively. In addition, the inhibition in assay [2] came out at 37.8%.
As to `Cc1c(C)c2c(c(C)c1O)CCC(C)(COc1ccc(CC3SC(=O)NC3=O)cc1)O2` (centres undefined), the inhibition in [8] is 23.4%.
On to `CNC(=O)[C@H]1S[C@@H](n2cnc3c(NCc4cccc(I)c4)ncnc32)[C@H](O)[C@@H]1O`, for which the pKi is 9.52 in [9] and 5.60 in assay [5]. The inhibition is 46.9% in [4], 13.5% in assay [2] and 22% in assay [13]. Besides, the Activity in assay [1] stood at 343 pg/mL; in [10], 46.9%; in assay [3], 126 pg/mL. In assay [11], the result was inactive. Besides, the result in assay [12] and in assay [14] was Active.
On to `OC[C@H]1O[C@@H](n2cnc3c(NC4CCCC4)nc(Cl)nc32)[C@H](O)[C@@H]1O`, for which the outcome in [6] was inactive. Also, in assay [15], the Activity is listed as 20 - 30%.
In the case of `O[C@@H]1[C@H](O)CS[C@H]1n1cnc2c(NCc3cccc(I)c3)ncnc21`, the pKi in assay [9] is 8.82.
`C[C@@H]1C[C@H]2[C@@H]3CCC4=CC(=O)C=C[C@]4(C)[C@@]3(F)[C@@H](O)C[C@]2(C)[C@@]1(O)C(=O)CO` [DEXAMETHASONE]: the Activity in [1] and in [3] was 100 pg/mL each time.
With `CNC(=O)[C@@]12C[C@@H]1[C@@H](n1cnc3c(NCc4cccc(Cl)c4)nc(C#Cc4ccc(F)c(F)c4)nc31)[C@H](O)[C@@H]2O`, in [16], the result was inactive.
Still for that read-out and setting: the same measure for `CCCn1cc2c(nc(NC(=O)Nc3ccc(OC)cc3)n3nc(-c4ccco4)nc23)n1`: “inactive”.
Consider `COc1ccc(Cl)cc1C(=O)NCCc1ccc(S(=O)(=O)NC(=O)NC2CCCCC2)cc1` [GLYBURIDE], for which the Activity is 1000 pg/mL in [1] and 838 pg/mL in assay [3]. The compound further registered an inhibition in assay [8] of 21.5%.
As for `O[C@@H]1[C@H](O)CS[C@H]1n1cnc2c(NCc3cccc(I)c3)nc(Cl)nc21`, the Activity is 857 pg/mL in assay [1]; 54.3% in [10]; “Dose-dependent effect” in [12]; 192 pg/mL in assay [3]; “Dose-dependent effect” in [18]. Also, the inhibition result in [17] was “Dose-dependent effect”; in assay [13], 57%. The compound further showed a pKi in assay [5] of 8.32. For the same compound, the result in [11] was inactive. Also, the outcome in assay [14] was Active.
`CCNC(=O)[C@H]1S[C@@H](n2cnc3c(NCc4cccc(I)c4)ncnc32)[C@H](O)[C@@H]1O`: the inhibition in [4] came out at 37.1%; in [2], 29.3%. Also, the values for the Activity in [1] and in [3] were 242 pg/mL and 118 pg/mL, respectively. Also, the pKi in [5] is 5.50.
Take `CCNC(=O)[C@H]1O[C@@H](n2cnc3c(N)ncnc32)[C@H](O)[C@@H]1O` [NECA]: the result in assay [6] was inactive. Besides, the Activity in [15] is recorded as 20 - 30%.
As to `O=C(NC1CCC1)[C@H]1S[C@@H](n2cnc3c(NCc4cccc(I)c4)ncnc32)[C@H](O)[C@@H]1O`, the Activity in [1] worked out at 633 pg/mL; in assay [3], 323 pg/mL. The figures for the pKi in assay [7] and in [5] were 6.77 and 5.58, respectively. The same compound yielded an inhibition in assay [2] of 11.7%.
Take `O=C(NC1CC1)[C@H]1S[C@@H](n2cnc3c(NCc4cccc(I)c4)ncnc32)[C@H](O)[C@@H]1O`: the inhibition in assay [4] was found to be 49.1%; in assay [2], 37.6%. Also, the results for the Activity in [1] and in assay [3] were 249 pg/mL and 174 pg/mL, respectively. Also, the pKi in assay [5] is 5.53.

The values above are taken from ChEMBL document CHEMBL4017496 (J Med Chem, 2017).
